This note sets out measurements from EPA's ToxValDB 9.5.

Structures are written as SMILES. Converted amounts (≈) assume the structure as drawn. “And” between values parts separate entries of the source, which are not always exact repeats. Equal entries are not always repeated.

Series [1] deals with Rattus norvegicus. The following applies: for LD50 / LC50: acute.
Another series concerns Mus musculus. The following applies: for LC50 / LD50: acute; for LD50: injection.
The test system of another series is Oryctolagus sp. The following applies: for NOAEL: gavage.
Series [2] deals with Rattus norvegicus. The following applies: injection, subcutaneous.
Series [3] relates to Rattus norvegicus. The following applies: chronic; duration: 2 years; oral; diet; M/F; neurotoxicity.
Series [4] deals with Rattus norvegicus. The conditions noted are these: subchronic; oral; gavage; M; Sprague-Dawley; Food Consumption: increase + Urinalysis: Ketone body decrease + Blood Chemistry: T-Cho increase, PL increase, TP increase + Absolute Organ ….
[5] abbreviates: chronic, duration: 104 weeks, oral, diet, CDA.
The mark [6] stands for this setting: subchronic, duration: 90 days, oral, gavage, CDA Sprague-Dawley.

As to `C=C(C)C(=O)OCCN(C)C` [2-(Dimethylamino)ethyl methacrylate], the LD50 – broadly, the dose at which mortality reaches 50% – in the series with Rattus norvegicus [1] (dermal, Sprague-Dawley) was greater than 2000 mg/kg; with Rattus norvegicus [1] (oral, gavage, Crj:CD), greater than 2000 mg/kg; with Mus musculus (intraperitoneal) it was 25 mg/kg; in the series on Oryctolagus sp. (acute, dermal) it was greater than 3000 mg/kg. Moreover, the LC50 with Rattus norvegicus [1] (inhalation) amounted to 0.62 µg/mL (≈ 3.94 µM); with Mus musculus (inhalation), 1.8 µg/mL (≈ 11.4 µM). Moreover, the NOAEL (as a rule, the highest tested level that showed no adverse finding) with Rattus norvegicus [1] (reproduction developmental, duration: 41 days, oral, gavage, Crj:CD, generation: F0) stood at 200 mg/kg-day; with Rattus norvegicus [1] (short-term, duration: 3 weeks, inhalation) it was 643 mg/m3; in the series with Rattus norvegicus [1] (subchronic, duration: 41 days, oral, gavage, Crj:CD), 200 mg/kg-day.
Take `Cc1cc(C)cc(O)c1` [3,5-Dimethylphenol]: the LC50 in the series with Rattus norvegicus [1] (oral) is 608 mg/kg; in the series on Mus musculus (oral) it was 477 mg/kg; with Oryctolagus sp. (acute, oral), 1310 mg/kg.
With `CC(C)(C)c1cc(C(C)(C)c2ccc(O)c(C(C)(C)C)c2)ccc1O` [4,4'-Propane-2,2-diylbis(2-tert-butylphenol)], the LD50 with Mus musculus (Intraperitoneal) and with Mus musculus (intraperitoneal) was 40 mg/kg each time.
`CCC(C)(C)c1ccc(O)cc1` [4-(2-Methylbutan-2-yl)phenol]: in the series on Rattus norvegicus [2] (uterotrophic, duration: 3 days, Active), the LEL is 200 mg/kg-day and 202 mg/kg-day.
Regarding `CC(C)(C)C1CCC(O)CC1` (stereo not drawn) [4-tert-Butylcyclohexanol], the LD50 with Rattus norvegicus [1] (oral) was 4200 mg/kg; in the series on Mus musculus (Intraperitoneal, CF1), ≥ 50 mg/kg and ≤ 100 mg/kg; in the series with Oryctolagus sp. (acute, dermal), greater than 5000 mg/kg. Also, in the series on Rattus norvegicus [1] (short-term, duration: 28 days, oral, gavage, Wistar), the LOAEL (commonly the lowest tested level that showed an adverse finding) was determined as 150 mg/kg-day.
As for `CC1(C)NC(=O)NC1=O` [5,5-Dimethylhydantoin], in the series with Rattus norvegicus [1] (inhalation), the LC50 was greater than 14.7 µg/mL. Also, the LD50 is greater than 5000 mg/kg in the series with Rattus norvegicus [1] (oral, gavage, Sprague-Dawley); greater than 20000 mg/kg in the series with Oryctolagus sp. (acute, dermal, New Zealand); greater than 3000 mg/kg in the series on Oryctolagus sp. (acute, dermal, occlusive, New Zealand). In addition, the NOAEL in the series on Rattus norvegicus [1] (chronic, duration: 24 months, oral, diet, Crl:CDABR) is greater than 1000 mg/kg-day; in the series with Rattus norvegicus [1] (setting [5]), 1000 mg/kg-day; in the series with Rattus norvegicus [1] (developmental, duration: 14 days, oral, gavage, Sprague-Dawley COBS CD), no more than 2000 mg/kg-day; with Rattus norvegicus [1] (developmental, oral, gavage, Crl:CD(SD) BR) it was 250 mg/kg-day; in the series on Rattus norvegicus [1] (reproduction developmental, duration: 10 weeks, oral, diet, CD, generation: F0), 20000 ppm; in the series on Rattus norvegicus [1] (reproduction developmental, duration: 10 weeks, oral, diet, CD, generation: F1), 20000 ppm. For the same molecule, the NOAEL in the series with Rattus norvegicus [1] (reproduction developmental, oral, gavage, Crl:CD(SD) BR, generation: F0) turned out to be 1000 mg/kg-day; in the series on Rattus norvegicus [1] (reproduction developmental, oral, gavage, F, Crl:CD(SD) BR), 1000 mg/kg-day; with Rattus norvegicus [1] (subchronic, duration: 13 weeks, oral, gavage, Sprague-Dawley (CRl: CDBR)), 1000 mg/kg-day; in the series with Rattus norvegicus [1] (setting [6]), 2000 mg/kg-day; in the series on Mus musculus (short-term, duration: 28 days, oral, diet, F, CD1), 50000 ppm; in the series with Oryctolagus sp. (developmental, duration: 13 days, oral, New Zealand), 100 mg/kg-day. The molecule further came in with an NOAEL in the series with Oryctolagus sp. (reproduction developmental, duration: 13 days, oral, F, New Zealand) of 500 mg/kg-day. Moreover, the LOAEL in the series with Rattus norvegicus [1] (setting [5]) is greater than 1000 mg/kg-day; with Rattus norvegicus [1] (setting [6]) it was 5000 mg/kg-day; in the series on Mus musculus (subchronic, duration: 13 weeks, oral, diet, CD1), 9850 mg/kg-day.
Take `C=C[C@@]12CCc3cc(O)ccc3[C@H]1CC[C@@]1(C)[C@H]2CC[C@@H]1O` [8beta-Vinylestra-1,3,5(10)-triene-3,17beta-ol]: the LOEL in the series with Rattus norvegicus [2] (Hershberger, duration: 12 days, Wistar, active + Androgenic + androgenic) was found to be 100 mg/kg-day.
In the series with Rattus norvegicus [3], `CN(C)C(=S)SSC(=S)N(C)C` [Bis(dimethylaminothiocarbonyl) disulfide] showed an LEL of 15 mg/kg-day. Further, the NOEL with Rattus norvegicus [3] amounted to 5 mg/kg-day. The LD50 in the series on Rattus norvegicus [1] (dermal) is greater than 5000 mg/kg; in the series with Rattus norvegicus [1] (oral, gavage, Sprague-Dawley), 1080 mg/kg; with Oryctolagus sp. (acute, dermal), no less than 2000 mg/kg; in the series on Oryctolagus sp. (acute, dermal, New Zealand) it was greater than 7940 mg/kg. The same molecule yielded an LC50 in the series with Rattus norvegicus [1] (inhalation, particle) greater than 6.22 µg/mL. The NOAEL in the series with Rattus norvegicus [1] (reproduction developmental, duration: 10 days, oral, gavage, Crl:CD1, generation: F1) is 7.5 mg/kg-day; in the series on Rattus norvegicus [1] (reproduction developmental, duration: 10 days, oral, gavage, F) it was greater than 30 mg/kg-day; in the series on Rattus norvegicus [1] (reproduction developmental, duration: 10 days, oral, gavage, F, Crl:CD1) it was 7.5 mg/kg-day; with Rattus norvegicus [1] (reproduction developmental, duration: 10 days, oral, gavage, generation: F1), 7.5 mg/kg-day; in the series with Rattus norvegicus [1] (reproduction developmental, duration: 81 days, oral, diet, generation: F1), 60 ppm and 180 ppm; in the series on Rattus norvegicus [1] (subchronic, duration: 90 days, oral, diet, F), 2.5 mg/kg-day. Further, the NOAEL with Rattus norvegicus [1] (subchronic, duration: 90 days, oral, diet, M) worked out at 2.5 mg/kg-day; in the series on Oryctolagus sp. (reproduction developmental, duration: 14 days, oral, F, New Zealand), 5 mg/kg-day; in the series on Oryctolagus sp. (reproduction developmental, duration: 14 days, oral, New Zealand, generation: F1), 5 mg/kg-day.
In the case of `CC(C)OC(C)C` [Isopropyl ether], the NOEL in the series with Rattus norvegicus [4] is less than 100 mg/kg-day. Moreover, the NOAEL with Rattus norvegicus [1] (reproduction developmental, duration: 13 weeks, inhalation, Sprague-Dawley) came out at 2010 mg/m3; with Rattus norvegicus [1] (reproduction developmental, duration: 10 days, inhalation, F, Sprague-Dawley), 1800 mg/m3. The LD50 with Oryctolagus sp. (acute, dermal, non-occlusive, New Zealand) was greater than 2000 mg/kg; in the series with Oryctolagus sp. (acute, oral, New Zealand), 4500 mg/kg.
Regarding `CN=C=O` [Methyl isocyanate], the LOAEL in the series with Rattus norvegicus [1] (developmental, duration: 0.5 hours, inhalation) was less than 0.495 mg/m3; in the series on Rattus norvegicus [1] (reproduction developmental, duration: 0.5 hours, inhalation, F), less than 0.495 mg/m3; with Mus musculus (developmental, duration: 6 hours, inhalation, Swiss), less than 2.33 mg/m3. Moreover, the NOAEL in the series on Rattus norvegicus [1] (reproduction developmental, duration: 8 minutes, inhalation, whole body, Wistar, generation: F0) was greater than 3140 mg/m3; in the series with Rattus norvegicus [1] (reproduction developmental, duration: 0.5 hours, inhalation, generation: F0) it was greater than 0.824 mg/m3; in the series on Mus musculus (reproduction developmental, duration: 6 hours, inhalation, F, Swiss), greater than 7 mg/m3; with Mus musculus (reproduction developmental, duration: 6 hours, inhalation, Swiss, generation: F0), greater than 7 mg/m3.
